Results reported in patent US11053475B2, “Methods of expanding hematopoietic stem cells, compositions, and methods of use thereof” (WISCONSIN ALUMNI RESEARCH FOUNDATION, priority 2015, dated 2021).

Assays:
[1] = system: Lin- hematopoietic precursors from E14.5 fetal livers; experiment: Erythroid maturation (CD71/Ter119, R1-R5) of E14.5 fetal liver hematopoietic precursors, flow cytometry; type: cell-based, mouse; settings: Lin- HSPCs from fetal liver, DMSO as control, 3 days
Experimental: Primary erythroid precursor cell isolation. Primary erythroid precursors were isolated from E14.5 fetal livers using the EasySep™ negative selection Mouse Hematopoietic Progenitor Cell Enrichment Kit (StemCell Technologies). Briefly, fetal livers were dissociated by pipetting and resuspended at 5×10^7 cell/ml in PBS containing 2% FBS, 2.5 mM EDTA, and 10 mM glucose. EasySep™ Mouse Hematopoietic Progenitor Cell Enrichment Cocktail was added at 50 μg/ml supplemented with 2.5 μg/ml biotin-conjugated CD71 antibody (eBioscience). After 15 min incubation on ice, the cells were washed by centrifugation for […] at 1200 rpm at 4° C. and resuspended at 5×10^7 cell/ml in PBS containing 2% FBS, 2.5 mM EDTA, and 10 mM glucose, and EasySep™ Biotin Selection Cocktail was added at 100 μg/ml. After 15 min incubation at 4° C., EasySep™ Mouse Progenitor Magnetic Microparticles were added at 50 μg/ml. […]
(§1) Flow cytometry. […] APC-conjugated antibody CD31 (MEC13.3, Biolegend), PE-conjugated antibody c-Kit (2B8, eBioscience), PerCP-Cy5.5-conjugated antibody Scal (D7, eBioscience), APC-conjugated antibody Ter119 (TER119, eBioscience) and PE-conjugated CD71 (R17217, eBioscience) were used for flow cytometry and Fluorescence Activated Cell Sorting (FACS). Samples were analyzed on a FACSAria™ II cell sorter (BD Biosciences). […]

Gata2 expression = experiment: RT-PCR and Western blot of Gata2/GATA-2 and GATA-2 target genes in fetal liver cells and FACS-sorted R2 cells; type: cell-based, mouse; settings: total fetal liver cells, compound treatment, 72 h
Experimental: Cell culture. G1E-ER-GATA-1 cells were cultured with or without 1 μM estradiol as previously described. Fetal liver erythroid precursor cells were cultured and maintained at a density of 2.5×10^5−1×10^6 cells/ml in StemPro®-34 (Gibco) supplemented with 10% nutrient supplement (Gibco), 2 mM L-glutamine (Cellgro), 1% Penicillin/streptomycin (Cellgro), 100 μM monothioglycerol (Sigma-Aldrich), 1 μM dexamethasone (Sigma-Aldrich), 0.5 U/ml of erythropoietin, and 1% conditioned medium from a kit ligand-producing CHO cell line for expansion. Cells were cultured in a humidified incubator at 37° C. (5% carbon dioxide).
Quantitative real-time RT-PCR. […] Real-time PCR was performed with SYBR green master mix (Applied Biosystems) and Product accumulation was monitored by SYBR green fluorescence using either a StepOnePlus™ or Viia™7 instrument (Applied Biosystems). Relative expression was determined from a standard curve of serial dilutions of cDNA samples, and values were normalized to 18S RNA expression. […]
as §1, with “(FACS).” for “(FACS). Samples were analyzed on a FACSAria™ II cell sorter (BD Biosciences).”

Structure (SMILES)	activity on erythropoiesis (flow analysis, R1-R5), compared with psychosine [1]	Gata2 mRNA level vs DMSO-treated control (Gata2 expression)	Gata2 primary transcript level vs DMSO-treated control (Gata2 expression)
CCCCCCCCCCCCC/C=C/[C@@H](O)C(N)CO[C@H]1O[C@H](CO)[C@@H](O[C@@H]2O[C@H](CO)[C@H](O)[C@H](O)[C@H]2O)[C@H](O)[C@@H]1O (stereo partly drawn) [lactosylsphingosine]	not		
CCCCCCCCCCCCC/C=C/C(O)C(N)CO[C@@H]1O[C@H](CO)[C@H](O)[C@H](O)[C@H]1O (stereo partly drawn) [psychosine, galactosylsphingosine]		2-3 fold	2-3 fold
